{
  "source": "patent US20240226041A1",
  "about": "“METHODS AND COMPOSITIONS FOR TREATMENT OF NEUROPATHIC PAIN USING STAT3 INHIBITORS” (priority 2021, published 2024)",
  "key": {"male C57BL/6 mice [1]": {"test_system": "male C57BL/6 mice", "test": "Cisplatin model of chemotherapy-induced peripheral neuropathy (CIPN), von Frey mechanical allodynia", "type": "in vivo, mouse", "conditions": "two cycles of 5 daily doses of 2.3 mg/kg followed by 5 days rest", "description": "Data were analyzed by two-way ANOVA repeated measures. Time: P<0.001; Group: P<0.001; Interaction P<0.001. **P<0.01 Tukey multiple comparison test. Data are from a representative experiment out of two with similar results.\nMale C57/B16 mice (n=4 per group) were treated with cisplatin (two rounds of 5 daily doses of 2.3 mg/kg i.p. followed by 5 days of rest). […] Data were analyzed by two-way ANOVA repeated measures. Time: P<0.001; Group: P<0.001; Interaction P<0.01. **P<0.01 Tukey multiple comparison test.\nPeripheral neuropathy has been observed with several small-molecule STAT3 inhibitors in clinical-stage development (Bendell et al., 2014; Genini et al., 2017; Ogura et al., 2015). […] This model was selected because it was shown previously that it is mediated by mitochondrial damage in the peripheral nervous system (Krukowski et al., 2017; Maj, Ma, Krukowski, Kavelaars & Heijnen, 2017). […] (FIG. 12).\nPain measurements and chemotherapy-induced peripheral neuropathy (CIPN)."}, "male C57BL/6 mice [2]": {"test_system": "male C57BL/6 mice", "conditions": "Krukowski et al., 2017; cited from earlier work"}, "DRG transcriptome": {"test_system": "DRG transcriptome", "test": "RNA-seq and IPA analysis of dorsal root ganglia of cisplatin-treated mice", "type": "in vivo, mouse", "conditions": "cisplatin vs. PBS", "from_the_text": "Expression of 1,973 genes was changed in response to cisplatin when compared to the PBS mice (PBS vs. Cis; n=3 male mice per group). […] A cutoff of (−0.2<log 2 Fold Change <0.2) and p=0.1 was used for the analysis. […] Gray indicates effect cannot be predicted.\nThe mechanistic network of four regulators identified STAT3 as an intermediate regulator. […] For example, for the TP53 network, 14 regulators were part of the mechanistic network which together influence expression of 481 genes and out of these 481 genes, 64 target genes are controlled by STAT3.\nRNA-seq and transcriptome analysis of dorsal root ganglion (DRG). […] Total RNA was isolated with the RNeasy MinElute Cleanup Kit (Qiagen, Hilden, Germany). Libraries were prepared with the Stranded mRNA-Seq kit (Kapa Biosystems, Wilmington, MA) following the manufacturer's guidelines. Stranded-mRNA seq was performed with a HiSeq4000 Sequencer (Illumina, San Diego, CA) with 76nt PE format by the RNA Sequencing Core at MD Anderson Cancer Center. Data analysis was performed as previously described (Chiu et al., 2018; Ma et al., 2019). Briefly, expression data of three samples per group were analyzed in R using bioconductor packages. STAR was used for alignment of paired-end reads to the mm10 version of the mouse reference genome; feature Counts was used to assign mapped sequence reads to genomic features, and DESeq2 was used to identify differentially expressed genes (padj<0.05). Quality check of raw and aligned reads was performed with FastQC and Qualimap. Next, we used Ingenuity Pathway Analysis (IPA; Qiagen Inc., https://www.qiagenbioinformatics.com/products/ingenuity-pathway-analysis/) for analysis of the canonical pathways implicated by cisplatin-induced transcriptome changes in DRG."}, "STAT3βtr": {"target": "T1, STAT3βtr (Homo sapiens, UniProt P40763)", "T1 construct": "STAT3 (127-722) cDNA was cloned into a pET15b vector; made in house; host or cells: E. coli BL21 (DE), pET15b", "T1 sequence (P40763 127-722 isoform P40763-3)": "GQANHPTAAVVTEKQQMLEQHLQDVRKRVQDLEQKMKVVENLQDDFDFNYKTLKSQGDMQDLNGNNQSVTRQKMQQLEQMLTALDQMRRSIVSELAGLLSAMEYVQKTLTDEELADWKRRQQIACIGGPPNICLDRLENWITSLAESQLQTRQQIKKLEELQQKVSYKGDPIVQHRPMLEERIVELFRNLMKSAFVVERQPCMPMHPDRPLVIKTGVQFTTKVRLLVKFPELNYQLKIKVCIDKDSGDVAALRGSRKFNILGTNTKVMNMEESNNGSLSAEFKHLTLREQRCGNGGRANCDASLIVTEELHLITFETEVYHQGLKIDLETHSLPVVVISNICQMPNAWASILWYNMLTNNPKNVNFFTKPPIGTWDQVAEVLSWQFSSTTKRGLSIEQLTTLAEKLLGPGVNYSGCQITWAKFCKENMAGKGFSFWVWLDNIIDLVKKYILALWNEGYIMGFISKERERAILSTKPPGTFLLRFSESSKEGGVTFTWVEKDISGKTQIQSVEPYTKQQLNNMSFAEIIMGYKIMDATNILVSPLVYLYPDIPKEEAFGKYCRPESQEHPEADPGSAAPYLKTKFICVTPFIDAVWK", "test": "STAT3 alkylation study, targeted LC-MS/MS (MRM, QTrap 5500) of tryptic digests", "type": "biochemical", "conditions": "for number of STAT3βtr peptides alkylated: natively folded STAT3βtr, conditions optimal for alkylation, LC-MS/MS of tryptic digest", "from_the_text": "To examine if this was a possibility, recombinant STAT3 was generated post-translationally unmodified in bacteria using a cDNA construct in which the domain containing the N-terminal oligomerization domain was deleted (STAT3βtr); this domain is not necessary for native folding of the core domains of STAT3 (CCD, DBD, linker domain, and SH2 domain) and its removal markedly improves recombinant STAT3 protein solubility. STAT3βtr contains 11 Cys residues. To determine how many of these Cys residues are available to be alkylated when soluble protein is natively folded, we incubated STAT3βtr with two protein alkylating agents, iodoacetamide and N-ethylmaleimide (NEM) under conditions optimal for alkylation (FIG. 11A-11B). […] The identity of the peptides were confirmed by performing full MS/MS spectra on the detected transitions. […] Five of the peptides contained a single alkylated Cys, while one of the peptides contained two alkylated Cys residues.\nExpression and purification of recombinant STAT3. STAT3 (127-722) cDNA was cloned into a pET15b vector and transformed in BL21 (DE) (Life Technologies, Inc. Woburn, MA) Expression of the recombinant protein was inducing by 0.5 mM IPTG, at 20° C. for 5 hr. The recombinant STAT3 protein was purified by ammonium sulfate precipitation followed by an ion exchange step with HiTrap Q columns (GE Healthcare Bio-Sciences, Uppsala Sweden) and size exclusion chromatography to achieve purity of over 98%.\nSTAT3 alkylation studies. Purified recombinant core fragment of STAT3β protein in ammonium bicarbonate buffer (10 μM) was mixed with each compound at a final concentration of 100 μM. The protein mixture was then incubated at 37° C. overnight. Samples were reduced with 5 mM DTT at 37 °C for one hour and further alkylated with iodoacetamide (15 mM) for 30 minutes at RT in the dark, followed by digestion with trypsin gold in a dry incubator at 37° C. overnight. Formic acid was added the next day to 5% and each protein sample was diluted in 5 mM ammonium acetate containing 0.5% formic acid immediately prior to analysis by Targeted Mass Spectrometry Multiple Reaction Monitoring (MRM).\nLC-MS/MS. A QTRAP 5500 Sciex hybrid quadrupole-linear ion trap system with a TurboIonSpray ion source in positive mode and equipped with a Sciex LC Exion liquid chromatography system was used to analyze tryptic digests of STAT3 protein samples treated with STAT3 inhibitors. Fractionation of the samples was done using a Waters Symmetry C18 column (100 Å, 3.5 μm, 4.6 mm×150 mm) and a 30 min linear gradient of acetonitrile with 0.1% formic acid at a flow rate of 300 uL/min. A transition list of cysteine-containing peptides with expected drug-cysteine adducts were generated in Skyline software and exported to the QTRAP mass spectrometer to developed acquisition methods. Resultant raw data files generated in the QTRAP were imported back into Skyline for analysis and additional processing."}, "STAT3": {"target": "T2, STAT3 (Homo sapiens, UniProt P40763)", "T2 construct": "STAT3 (127-722) cDNA was cloned into a pET15b vector; made in house; host or cells: E. coli BL21 (DE), pET15b", "T2 sequence (P40763 127-722 isoform P40763-3)": "as above", "test": "STAT3 alkylation study, high resolution LC-MS/MS for unknown chemical adducts", "type": "biochemical", "conditions": "vs. STAT3 incubated with DMSO", "description": "FIGS. 11A-11C show alkylation of STAT3βtr by iodoacetamide and NEM. […] The dotted line indicates the cutoff for a significant Z-score.\nSTAT3 alkylation studies. Purified recombinant core fragment of STAT3β protein in ammonium bicarbonate buffer (10 μM) was mixed with each compound at a final concentration of 100 μM. The protein mixture was then incubated at 37° C. overnight. Samples were reduced with 5 mM DTT at 37 °C for one hour and further alkylated with iodoacetamide (15 mM) for 30 minutes at RT in the dark, followed by digestion with trypsin gold in a dry incubator at 37° C. overnight. […]\nHigh resolution LC/MS. An aliquot of the tryptic digests of STAT3 proteins treated with DMSO (control) and those treated with Stattic and TTI101 were analyzed by LC-MS/MS on an Ultimate 3000 RSLC-Nano chromatograph interfaced to an Orbitrap Fusion high-resolution mass spectrometer (Thermo Scientific, Waltham MA). All MS/MS data were analyzed using Sequest-HT (Thermo Scientific). […] To access for potential unknown modifications, the data was analyzed in MaxQuant using the dependent peptide search option (Tyanova, Temu & Cox, 2016). All peptides output list was analyzed by comparing Stattic, TTI101 and TTI101ox with DMSO treated samples as described in (Antinori, Michelot, Lescuyer, Müller & Acosta-Martin, 2019)."}, "DU-145 cells": {"test_system": "DU-145 cells", "test": "Seahorse XF Cell Mito Stress Test, oxygen consumption rate (OCR)", "type": "cell-based, human", "description": "FIGS. 1A-1C show the effects of STAT3 inhibitors on mitochondrial function. DU-145 cells were treated with the indicated STAT3 inhibitors at 30 μM for 2 Hrs.\nDU-145 cells were treated with STAT3 inhibitors at 10-30 μM for 2 Hrs. Data are representative of 4 or more independent experiments.\nATP production, maximal respiration, proton leak, and spare respiratory capacity. […] Similarly.\nMitochondrial assays. DU-145 cells (2.5×10^4) were seeded per well in a XF24 plate and incubated at 37° C./5% CO2 in complete RPMI medium. After 12 Hrs complete medium was replaced with nutrient depleted four-day culture media: conditioned media (CM) and incubated for 4 Hrs. Cells were then treated for another 2 Hrs with STAT3 inhibitors prior to analysis using a Seahorse XF24 Analyzer. The Oxygen Consumption Rate (OCR) was measured in DMEM XF base medium containing 10 mM glucose and 2 mM glutamine and 1 mM pyruvate, before and after the sequential injection of oligomycin, FCCP and rotenone/antimycin A to final concentrations of 1 μM, 1 μM and 0.5 μM respectively. Basal and maximal respiration values were estimate by subtraction of OCR value after treatment of cells with rotenone and antimycin A (which reflects non-mitochondrial respiration) from OCR values in cells treated with oligomycin and FCCP respectively."}, "[3]": {"test": "Glutathione reaction study (UV-HPLC stability with GSH)", "type": "physicochemical", "description": "The AUC of each compound measured at the times indicated by UV-HPLC and expressed as percent of the starting AUC of the peaks. Data are representative of four independently performed experiments.\nEach reaction mixture was sampled at time 0 and every 5 minutes for 50 minutes; all samples were analyzed by HPLC. The amount of unreacted inhibitor was determined by measuring the area under the curve (AUC) and plotting this value as a percentage of the starting AUC as a function of time (FIG. 3). […] In contrast, there was no loss of TTI-101 in the presence of GSH.\nGlutathione reaction studies. STAT3 inhibitors (10 ul of 10 mM stock in DMSO) were spiked into reaction buffer [50 mM HEPES pH7.5 containing 10 mM reduced glutathione (GSH)] the samples were mixed thoroughly and placed in an autosampler set at 20° C. The reactions were monitored by high performance liquid chromatography (HPLC) using an Exion LC Sciex unit equipped with a UV detector. The stationary phase used was a C18 Synergi™ 4 μm Fusion-RP 80 Å LC column (50×2 mm); the mobile phase was water (A) and acetonitrile (B). The elution process consisted of an isocratic step with 20% mobile phase B, followed by 80% B, for 2 minutes. The flow rate was maintained at 0.5 mL/min during the run. Measurements were conducted at intervals of 5 minutes for a period of 55 minutes total. The presence of the STAT3 inhibitors were quantified by calculating the area under the curves (AUCs) of the compound peaks at 260-295 nm."}},
  "data": [
    {"smiles": "N.N.[Cl][Pt][Cl]", "note": "[cisplatin, reference compound]", "values": [
      {"measurement": "induction of mechanical allodynia", "setting": "male C57BL/6 mice [1]", "value": "induces mechanical allodynia"},
      {"measurement": "duration of induced mechanical allodynia", "setting": "male C57BL/6 mice [2]", "value": "at least 75 days"},
      {"measurement": "VEGF signaling (IPA comparison analysis)", "setting": "DRG transcriptome", "value": "predicted activation of VEGF signaling"},
      {"measurement": "genes down in DRG", "setting": "DRG transcriptome", "value": 675, "unit": "genes"},
      {"measurement": "genes up in DRG", "setting": "DRG transcriptome", "value": "1,298 genes"},
      {"measurement": "genes with changed expression in DRG", "setting": "DRG transcriptome", "value": "1,973 genes"}
    ]},
    {"smiles": "NC(=O)CI", "note": "[iodoacetamide]", "values": [
      {"measurement": "number of STAT3βtr peptides alkylated", "setting": "STAT3βtr", "value": 6, "unit": "peptides"}
    ]},
    {"smiles": "O=[N+]([O-])c1ccc2c(c1)S(=O)(=O)C=C2", "note": "[Stattic]", "values": [
      {"measurement": "adducts on Cys containing STAT3 peptides (alkylation), targeted LC-MS/MS", "setting": "STAT3βtr; STAT3βtr 10 μM, compound 100 μM, 37° C. overnight", "value": "covalent modification of STAT3"},
      {"measurement": "alkylated peptides, targeted and untargeted LC-MS/MS", "setting": "STAT3βtr; STAT3βtr tryptic digests, Qtrap 5500 and Orbitrap, FIGS. 4A-4C (Stattic)", "value": "eight"},
      {"measurement": "chemical adducts / mass shifts of STAT3 peptides, untargeted high resolution LC-MS/MS", "setting": "STAT3", "value": "adducts were detected"},
      {"measurement": "OCR curves compared to DMSO control", "setting": "DU-145 cells; 2 Hrs, 10 and 30 μM (3-fold and 10-fold TTI-101 IC50)", "value": "did not consistently alter the OCR curves"},
      {"measurement": "unreacted inhibitor level (AUC) as percent of baseline in the presence of GSH", "setting": "[3]; 100 μM in 50 mM HEPES pH 7.5, 10 mM GSH, within 5 minutes", "value": "< 10", "unit": "%"},
      {"measurement": "inhibitor level in the absence of GSH", "setting": "[3]; without GSH", "value": "remaining constant"}
    ]},
    {"smiles": "C[C@H]1COC2=C1C(=O)C(=O)c1c2ccc2c1CCCC2(C)C", "note": "[cryptotanshinone]", "values": [
      {"measurement": "reduction in ATP level production", "setting": "DU-145 cells; 30 μM", "value": 50, "unit": "%"}
    ]},
    {"smiles": "CCN1C(=O)C=CC1=O", "note": "[NEM, N-ethylmaleimide]", "values": [
      {"measurement": "number of STAT3βtr peptides alkylated", "setting": "STAT3βtr", "value": 6, "unit": "peptides"}
    ]}
  ]
}
